From PMC11714206, “Massively Parallel Screening of Toll/Interleukin‐1 Receptor (TIR)‐Derived Peptides Reveals Multiple Toll‐Like Receptors (TLRs)‐Targeting Immunomodulatory Peptides” (Advanced Science, 2024)
Each block holds one sequence with its values, some of them ahead of it.

Target: T1, MyD88^TIR (Homo sapiens, UniProt Q99836)
T1 construct: MyD88 (residues 148–296); 6xHis; made in house; host or cells: E. coli BL21 (DE3)
Assay: T‐Surf phage library (P8 and P3) selection against MyD88^TIR, four rounds, NGS read counts
Format: binding
Settings: for P8_MyD88 Rank (after) / P8_MyD88 Rank (before): P8 library; for P3_MyD88 Rank (after) / P3_MyD88 Rank (before): P3 library; for Population: 4th round of selection against MyD88 TIR, share of NGS reads
Description: T‐Surf libraries were screened against the immobilized TIR domains of two major human TLR adaptor proteins, MAL^TIR and MyD88^TIR, allowing cross‐species selection of TIR‐binding motifs with 190 946 TIR‐derived peptides in a single binding assay (Scheme 1). Enriched phage pools from the fourth round of selection were analyzed using NGS after barcoding the peptide‐coding regions of the phage pools.
Phage display screening was performed by coating two wells of a 96‐well plate (Maxisorp, Thermo Fisher Scientific) with 100 µL of 5 µg mL^−1 TIR domains overnight; then, the coated wells were blocked with 200 µL of blocking buffer (0.2% BSA in PBS) and set aside for 1 h at 4 °C with gentle shaking. Next, 100 µL of the phage library was added to the wells and incubated for 1 h at room temperature (RT; 20 – 22 °C) with gentle shaking. The plate was washed four times with PBS containing 0.5% Tween‐20; the bound phages were eluted by adding 100 µL of 100 mM HCl to each well. The elute was neutralized with 10 µL of 1.0 M Tris‐HCl (pH 11.0). E. coli TG1 cells were grown to the log phase (A600 = ≈0.6), and 1 mL of the culture was incubated with 100 µL of the eluted phages for 30 min at 37 °C, with shaking at 200 rpm. Next, 1 µL of M13KO7 helper phages was added, followed by incubation for 45 min at 37 °C, with shaking. Subsequently, the cells were transferred to 25 mL of 2× yeast extract tryptone/carbenicillin/kanamycin medium and incubated overnight at 37 °C with shaking at 200 rpm. The amplified phages were precipitated with 20% PEG‐8000/2.5 M NaCl to be used for the next round of selection.
The naïve T‐Surf libraries in P8 and P3 and the enriched phage pools after four rounds were barcoded for NGS as previously described.^[ [59] ^] Briefly, 5 µL of the phage pool was used as a template for 20 cycles of a 50 µL PCR reaction using […] each of forward and reverse barcoded primers and PrimeSTAR Max DNA Polymerase. The PCR products were purified using Expin Gel SV (GeneAll). The NGS samples were quantified using qPCR, following the qPCR Quantification Protocol Guide (KAPA Library Quantification kits for Illumina Sequencing Platform), and qualified using the TapeStation High Sensitivity D1000 ScreenTape (Agilent Technologies). The indexed libraries were further sequenced by Macrogen (Seoul, Republic of Korea) using the NovaSeq platform (Illumina) with 100 bp paired‐end reads. The reads were demultiplexed by barcodes and filtered for an average Phred quality score of at least 30, followed by trimming the flanking consensus sequences using Cutadapt (version 2.3). Peptide sequence populations were analyzed according to the read counts.

[1] = P3_MyD88: rank by count after grouping
[2] = P3_MyD88: rank by count before grouping
[3] = P8_MyD88: rank by NGS read count after grouping
[4] = P8_MyD88: rank by NGS read count before grouping
[5] = selection against MyD88, rank after grouping
[6] = selection against MyD88, rank before grouping
[7] = selection against MyD88, rank by count after grouping
[8] = selection against MyD88, rank by count before grouping
[9] = selection against MyD88 TIR, rank by count after grouping
[10] = selection against MyD88 TIR, rank by count before grouping
[11] = P8_MyD88: rank by count after grouping
[12] = P8_MyD88: rank by count before grouping
[13] = 4R selection against MyD88, rank after grouping
[14] = 4R selection against MyD88, rank before grouping

T1 sequence (Q99836 148-296): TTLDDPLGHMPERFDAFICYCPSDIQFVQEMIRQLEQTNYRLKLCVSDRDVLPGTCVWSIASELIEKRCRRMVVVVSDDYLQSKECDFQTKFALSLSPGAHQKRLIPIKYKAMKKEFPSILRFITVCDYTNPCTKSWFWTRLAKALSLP

Rank (after) [1]: 178
Rank (before) [2]: 1654
Sequence: YTALTNICFHTFRDND

Rank (after) [3]: 1004
Rank (before) [4]: 2741
Sequence: DPQDLDCYYERLVSLF

P8_MyD88 Rank (after) [5]: 534
P8_MyD88 Rank (before) [6]: 2582
Sequence: DLCDILSQNGIPTFFD

P8_MyD88 Rank (after) [7]: 717
P8_MyD88 Rank (before) [8]: 3311
Sequence: LGYHCHDREYFVGIED

Rank (after) [3]: 933
Rank (before) [4]: 3097
Sequence: DSLFWDRLLYSLQFTE

P8_MyD88 Rank (after) [7]: 762
P8_MyD88 Rank (before) [8]: 2102
Sequence: YPQELDWCYERLVSLL

P8_MyD88 Rank (after) [9]: 218
P8_MyD88 Rank (before) [10]: 358
Sequence: ELDFSHFWLFDGQAT

Rank (after) [1]: 418
Rank (before) [2]: 1439
Sequence: YYLDPSHLRKQRGEVD

Rank (after) [1]: 450
Rank (before) [2]: 2091
Sequence: DTALTNSGFHTLRDND

Rank (after) [3]: 940
Rank (before) [4]: 2389
Sequence: DLLRHLIEAFSRMHIN

P3_MyD88 Rank (after) [5]: 552
P3_MyD88 Rank (before) [6]: 1712
Sequence: YTALPNSGFHTIRDNE

Rank (after) [11]: 126
Rank (before) [12]: 137
Population (P8_MyD88 pool: P8 T-Surf phage library): 0.0123%
Sequence: SFTDHLYAALVQAGIL

Rank (after) [1]: 442
Rank (before) [2]: 2126
Sequence: EWLREQLRSARKERLP

P8_MyD88 Rank (after) [13]: 589
P8_MyD88 Rank (before) [14]: 3431
Sequence: PQDLDWFYDRLVSLIL

Rank (after) [1]: 438
Rank (before) [2]: 3282
Sequence: SNFREGLWRQQELSKK

P3_MyD88 Rank (after) [9]: 199
P3_MyD88 Rank (before) [10]: 3151
Sequence: SSFREGLWRLLEVSQK

P8_MyD88 Rank (after) [13]: 649
P8_MyD88 Rank (before) [14]: 2649
Sequence: DPQVLEWIYARLFSQM

Rank (after) [1]: 137
Rank (before) [2]: 2407
Sequence: LKCGEPYFWSKLRYAM

P3_MyD88 Rank (after) [9]: 265
P3_MyD88 Rank (before) [10]: 1150
Sequence: QGGDEITPSLFKAFKD

P3_MyD88 Rank (after) [5]: 497
P3_MyD88 Rank (before) [6]: 1664
Sequence: YTALTNSGFHIFSANG

Rank (after) [1]: 132
Rank (before) [2]: 3534
Sequence: NQWPNALTAAANLRGW

P8_MyD88 Rank (after) [7]: 686
P8_MyD88 Rank (before) [8]: 1851
Sequence: YASSWWLRELLQIA

Rank (after) [1]: 395
Rank (before) [2]: 3228
Sequence: SSFRESLWRLLALNKR

Rank (after) [11]: 432
Rank (before) [12]: 2483
Sequence: DWAWDYLLPNLEGSAG

P3_MyD88 Rank (after) [7]: 688
P3_MyD88 Rank (before) [8]: 1427
Sequence: STAMTNRGFHTFRDND

Rank (after) [3]: 1024
Rank (before) [4]: 3747
Sequence: SADYDDVGDRLIRMIE

P8_MyD88 Rank (after) [9]: 198
P8_MyD88 Rank (before) [10]: 294
Sequence: SSTWALDELERILEYM

P8_MyD88 Rank (after) [5]: 575
P8_MyD88 Rank (before) [6]: 2743
Sequence: DPQDLDWFLNVWLTW

P3_MyD88 Rank (after) [13]: 595
P3_MyD88 Rank (before) [14]: 1975
Sequence: AWIREQLRTALKERPP

Population (P3_MyD88 pool: P3 T-Surf phage library): 0.00437%
Sequence: LKWGDPWFWDRLRFA

P8_MyD88 Rank (after) [13]: 579
P8_MyD88 Rank (before) [14]: 2447
Sequence: DWVWDYLLPKLECPSG

P3_MyD88 Rank (after) [7]: 743
P3_MyD88 Rank (before) [8]: 3387
Sequence: NELIDVGHSYSMHRGG

P8_MyD88 Rank (after) [9]: 239
P8_MyD88 Rank (before) [10]: 1938
Sequence: YELDFSHFWLFDGHATGEA

P8_MyD88 Rank (after) [5]: 485
P8_MyD88 Rank (before) [6]: 2602
Sequence: DPPLLHGLYERLVILF

P8_MyD88 Rank (after) [13]: 598
P8_MyD88 Rank (before) [14]: 1458
Sequence: WALDELLQILHAKETM

Rank (after) [1]: 111
Rank (before) [2]: 682
Sequence: LSRVPSVHDFRGFATI

P8_MyD88 Rank (after) [13]: 638
P8_MyD88 Rank (before) [14]: 1808
Sequence: YASYDDNDYYWVTHVLLSR

P3_MyD88 Rank (after) [9]: 234
P3_MyD88 Rank (before) [10]: 1531
Sequence: YAFTGHLQRYLVQRCV

Rank (after) [1]: 127
Rank (before) [2]: 2450
Sequence: LKWGEPYCWSKLRYAM

P8_MyD88 Rank (after) [13]: 650
P8_MyD88 Rank (before) [14]: 2504
Sequence: DYASSWWALDELLRILY

P8_MyD88 Rank (after) [7]: 748
P8_MyD88 Rank (before) [8]: 2610
Sequence: DPLGQVRLSFRLFRQI
